Measurements taken from PubChem BioAssay AID651979 (The Scripps Research Institute Molecular Screening Center, 2013).
The source made the active and inactive calls. The rule behind the calls is not given here.

Columns and labels:
Assay in all cases: PubChem AID 651979
ABHD10 = conditions: HEK293T SILAC ABPP, NHU5 probe, LC-MS/MS ratio, at 5 µM, stronger effect = lower value
ABHD12 = conditions: HEK293T SILAC ABPP, NHU5 probe, LC-MS/MS ratio, at 5 µM, stronger effect = lower value
ABHD6 = conditions: HEK293T SILAC ABPP, NHU5 probe, LC-MS/MS ratio, at 5 µM, stronger effect = lower value
[1] = target: Acyl-protein thioesterase 1 (Homo sapiens) (UniProt O75608); conditions: HEK293T SILAC ABPP, NHU5 probe, LC-MS/MS ratio; LYPLA1; at 5 µM; stronger effect = lower value
Sequence of Acyl-protein thioesterase 1 (Homo sapiens) (O75608 whole entry, looked up): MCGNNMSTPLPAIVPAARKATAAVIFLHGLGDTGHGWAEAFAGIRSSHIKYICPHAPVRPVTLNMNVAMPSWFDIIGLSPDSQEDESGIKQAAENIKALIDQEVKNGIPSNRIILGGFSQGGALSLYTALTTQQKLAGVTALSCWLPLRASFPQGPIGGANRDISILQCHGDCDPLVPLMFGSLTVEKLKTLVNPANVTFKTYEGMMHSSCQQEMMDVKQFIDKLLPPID

[2] = target: Acyl-protein thioesterase 2 (Homo sapiens) (UniProt O95372); conditions: HEK293T SILAC ABPP, NHU5 probe, LC-MS/MS ratio; LYPLA2; at 5 µM; stronger effect = lower value
Sequence of Acyl-protein thioesterase 2 (Homo sapiens) (O95372 whole entry, looked up): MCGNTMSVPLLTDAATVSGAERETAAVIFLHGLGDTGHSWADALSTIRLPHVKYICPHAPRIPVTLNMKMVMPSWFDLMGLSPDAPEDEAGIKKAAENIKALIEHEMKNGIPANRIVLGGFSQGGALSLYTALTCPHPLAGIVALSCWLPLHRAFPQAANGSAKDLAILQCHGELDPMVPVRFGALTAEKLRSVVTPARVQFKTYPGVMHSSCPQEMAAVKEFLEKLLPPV

[3] = target: Acylamino-acid-releasing enzyme (Homo sapiens) (UniProt P13798); conditions: HEK293T SILAC ABPP, NHU5 probe, LC-MS/MS ratio; APEH; at 5 µM; stronger effect = lower value
Sequence of Acylamino-acid-releasing enzyme (Homo sapiens) (P13798 whole entry, looked up): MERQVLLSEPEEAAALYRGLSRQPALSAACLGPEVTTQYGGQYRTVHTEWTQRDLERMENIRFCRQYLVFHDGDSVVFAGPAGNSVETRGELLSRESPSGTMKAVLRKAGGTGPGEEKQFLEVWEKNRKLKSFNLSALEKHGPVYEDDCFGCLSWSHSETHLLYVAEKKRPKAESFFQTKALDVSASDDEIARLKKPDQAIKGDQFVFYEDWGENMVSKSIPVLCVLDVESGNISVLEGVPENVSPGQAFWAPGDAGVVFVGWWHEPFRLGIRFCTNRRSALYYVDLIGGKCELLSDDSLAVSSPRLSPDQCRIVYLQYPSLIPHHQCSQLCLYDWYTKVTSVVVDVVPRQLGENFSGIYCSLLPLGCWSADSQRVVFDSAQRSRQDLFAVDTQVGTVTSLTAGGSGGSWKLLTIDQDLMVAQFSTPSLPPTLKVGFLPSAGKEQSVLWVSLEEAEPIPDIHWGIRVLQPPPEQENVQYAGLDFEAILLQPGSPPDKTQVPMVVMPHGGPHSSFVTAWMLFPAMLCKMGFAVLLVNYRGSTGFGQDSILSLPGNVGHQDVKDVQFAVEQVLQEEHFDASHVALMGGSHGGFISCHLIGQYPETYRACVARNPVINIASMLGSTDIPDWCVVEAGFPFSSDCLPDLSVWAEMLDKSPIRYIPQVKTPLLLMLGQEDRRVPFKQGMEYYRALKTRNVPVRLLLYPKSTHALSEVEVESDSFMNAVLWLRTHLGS

CTSA = conditions: HEK293T SILAC ABPP, NHU5 probe, LC-MS/MS ratio, at 5 µM, stronger effect = lower value
DDHD1 = conditions: HEK293T SILAC ABPP, NHU5 probe, LC-MS/MS ratio, at 5 µM, stronger effect = lower value
[4] = target: Dipeptidyl peptidase 9 (Homo sapiens) (UniProt Q86TI2); conditions: HEK293T SILAC ABPP, NHU5 probe, LC-MS/MS ratio; DPP9; at 5 µM; stronger effect = lower value
Sequence of Dipeptidyl peptidase 9 (Homo sapiens) (Q86TI2 whole entry, looked up): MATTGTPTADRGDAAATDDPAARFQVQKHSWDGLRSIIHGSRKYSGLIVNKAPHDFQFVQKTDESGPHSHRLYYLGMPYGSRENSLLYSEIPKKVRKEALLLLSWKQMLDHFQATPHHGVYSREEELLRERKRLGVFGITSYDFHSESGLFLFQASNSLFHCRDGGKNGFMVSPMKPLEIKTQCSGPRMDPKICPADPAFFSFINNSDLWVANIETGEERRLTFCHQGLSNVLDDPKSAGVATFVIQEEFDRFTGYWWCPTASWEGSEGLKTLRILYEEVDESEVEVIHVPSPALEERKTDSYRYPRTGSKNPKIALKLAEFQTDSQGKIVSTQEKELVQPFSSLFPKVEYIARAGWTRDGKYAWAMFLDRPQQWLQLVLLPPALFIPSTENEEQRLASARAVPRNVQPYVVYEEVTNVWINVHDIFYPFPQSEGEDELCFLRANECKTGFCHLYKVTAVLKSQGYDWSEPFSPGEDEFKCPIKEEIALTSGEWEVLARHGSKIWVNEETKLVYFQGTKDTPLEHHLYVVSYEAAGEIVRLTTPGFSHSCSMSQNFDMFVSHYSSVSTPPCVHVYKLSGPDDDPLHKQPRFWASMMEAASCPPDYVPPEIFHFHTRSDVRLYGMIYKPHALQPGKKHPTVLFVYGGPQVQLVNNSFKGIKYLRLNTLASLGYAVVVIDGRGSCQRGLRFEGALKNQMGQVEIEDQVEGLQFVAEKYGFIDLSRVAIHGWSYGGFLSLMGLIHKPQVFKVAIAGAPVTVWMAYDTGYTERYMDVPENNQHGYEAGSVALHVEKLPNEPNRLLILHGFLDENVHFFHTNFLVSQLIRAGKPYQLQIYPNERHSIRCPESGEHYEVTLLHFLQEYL

ESD = conditions: HEK293T SILAC ABPP, NHU5 probe, LC-MS/MS ratio, at 5 µM, stronger effect = lower value
[5] = target: Fatty acid synthase (Homo sapiens) (UniProt P49327); conditions: HEK293T SILAC ABPP, NHU5 probe, LC-MS/MS ratio; FASN; at 5 µM; stronger effect = lower value
Sequence of Fatty acid synthase (Homo sapiens) (P49327 whole entry, looked up): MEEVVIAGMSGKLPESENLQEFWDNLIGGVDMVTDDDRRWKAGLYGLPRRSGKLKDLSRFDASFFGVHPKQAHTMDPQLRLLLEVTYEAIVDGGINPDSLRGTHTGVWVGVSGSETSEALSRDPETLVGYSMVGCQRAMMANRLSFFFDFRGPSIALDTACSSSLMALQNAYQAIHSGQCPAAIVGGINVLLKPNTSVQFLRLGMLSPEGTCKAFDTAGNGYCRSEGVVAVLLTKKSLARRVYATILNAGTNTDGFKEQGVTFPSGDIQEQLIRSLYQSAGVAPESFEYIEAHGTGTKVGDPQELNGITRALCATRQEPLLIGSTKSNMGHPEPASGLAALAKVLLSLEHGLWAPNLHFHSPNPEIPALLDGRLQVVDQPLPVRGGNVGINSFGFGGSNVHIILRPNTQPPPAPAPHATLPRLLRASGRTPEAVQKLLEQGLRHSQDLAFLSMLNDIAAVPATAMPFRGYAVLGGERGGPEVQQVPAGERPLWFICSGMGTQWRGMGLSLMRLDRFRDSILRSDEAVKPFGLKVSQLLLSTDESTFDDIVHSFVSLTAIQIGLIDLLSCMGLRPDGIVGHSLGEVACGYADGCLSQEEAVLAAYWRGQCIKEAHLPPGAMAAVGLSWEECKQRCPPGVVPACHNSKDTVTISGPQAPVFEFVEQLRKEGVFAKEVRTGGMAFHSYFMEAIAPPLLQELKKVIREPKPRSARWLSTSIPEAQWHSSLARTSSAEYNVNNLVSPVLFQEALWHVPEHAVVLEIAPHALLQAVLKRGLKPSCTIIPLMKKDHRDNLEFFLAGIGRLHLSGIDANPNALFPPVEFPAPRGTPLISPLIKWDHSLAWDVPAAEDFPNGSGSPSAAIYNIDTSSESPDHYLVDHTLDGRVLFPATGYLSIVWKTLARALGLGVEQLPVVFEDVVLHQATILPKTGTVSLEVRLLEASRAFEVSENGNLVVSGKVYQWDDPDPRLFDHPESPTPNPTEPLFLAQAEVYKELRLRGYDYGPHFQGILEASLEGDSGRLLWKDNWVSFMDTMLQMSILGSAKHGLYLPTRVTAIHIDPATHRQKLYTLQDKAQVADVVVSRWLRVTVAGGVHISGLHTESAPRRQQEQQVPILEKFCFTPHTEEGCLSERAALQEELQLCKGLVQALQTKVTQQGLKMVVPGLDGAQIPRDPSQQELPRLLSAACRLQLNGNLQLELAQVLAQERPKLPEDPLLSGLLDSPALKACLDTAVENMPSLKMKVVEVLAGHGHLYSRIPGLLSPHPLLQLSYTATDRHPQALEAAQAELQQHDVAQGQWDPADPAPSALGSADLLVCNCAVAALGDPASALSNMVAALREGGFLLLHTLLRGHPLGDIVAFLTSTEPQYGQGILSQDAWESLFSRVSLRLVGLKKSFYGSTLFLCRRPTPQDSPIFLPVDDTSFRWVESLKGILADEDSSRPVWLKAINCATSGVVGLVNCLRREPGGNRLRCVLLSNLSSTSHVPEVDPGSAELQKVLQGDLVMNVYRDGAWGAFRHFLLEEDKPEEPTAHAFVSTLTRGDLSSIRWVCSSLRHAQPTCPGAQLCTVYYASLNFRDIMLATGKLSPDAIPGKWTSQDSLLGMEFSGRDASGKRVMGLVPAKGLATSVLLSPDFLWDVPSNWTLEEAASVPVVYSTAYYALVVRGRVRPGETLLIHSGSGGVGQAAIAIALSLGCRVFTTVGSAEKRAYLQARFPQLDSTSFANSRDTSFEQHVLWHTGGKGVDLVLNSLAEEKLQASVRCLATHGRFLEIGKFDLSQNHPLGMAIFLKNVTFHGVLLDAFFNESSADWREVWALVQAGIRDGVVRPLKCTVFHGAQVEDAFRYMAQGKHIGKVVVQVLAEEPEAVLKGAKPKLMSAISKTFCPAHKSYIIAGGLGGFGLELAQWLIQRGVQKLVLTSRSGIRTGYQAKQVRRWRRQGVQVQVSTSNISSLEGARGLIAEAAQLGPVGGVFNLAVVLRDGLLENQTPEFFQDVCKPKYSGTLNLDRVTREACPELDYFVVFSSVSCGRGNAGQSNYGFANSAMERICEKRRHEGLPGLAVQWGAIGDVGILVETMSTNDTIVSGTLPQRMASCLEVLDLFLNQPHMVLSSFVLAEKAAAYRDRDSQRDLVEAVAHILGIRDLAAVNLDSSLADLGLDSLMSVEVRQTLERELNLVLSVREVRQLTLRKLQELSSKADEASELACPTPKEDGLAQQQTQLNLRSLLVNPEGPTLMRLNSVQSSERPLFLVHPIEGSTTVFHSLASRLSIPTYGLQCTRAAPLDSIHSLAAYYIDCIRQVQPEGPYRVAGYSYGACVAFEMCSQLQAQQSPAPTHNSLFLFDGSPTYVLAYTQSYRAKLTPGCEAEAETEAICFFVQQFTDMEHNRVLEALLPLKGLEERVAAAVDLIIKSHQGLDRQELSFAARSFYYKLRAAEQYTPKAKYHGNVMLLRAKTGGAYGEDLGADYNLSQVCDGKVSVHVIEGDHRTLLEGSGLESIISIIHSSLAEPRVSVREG

LYPLAL1 = conditions: HEK293T SILAC ABPP, NHU5 probe, LC-MS/MS ratio, at 5 µM, stronger effect = lower value
PLA2G4A = conditions: HEK293T SILAC ABPP, NHU5 probe, LC-MS/MS ratio, at 5 µM, stronger effect = lower value
PNPLA6 = conditions: HEK293T SILAC ABPP, NHU5 probe, LC-MS/MS ratio, at 5 µM, stronger effect = lower value
PNPLA8 = conditions: HEK293T SILAC ABPP, NHU5 probe, LC-MS/MS ratio, at 5 µM, stronger effect = lower value
PREP = conditions: HEK293T SILAC ABPP, NHU5 probe, LC-MS/MS ratio, at 5 µM, stronger effect = lower value
[6] = target: Protein phosphatase methylesterase 1 (Homo sapiens) (UniProt Q9Y570); conditions: HEK293T SILAC ABPP, NHU5 probe, LC-MS/MS ratio; PPME1; at 5 µM; stronger effect = lower value
Sequence of Protein phosphatase methylesterase 1 (Homo sapiens) (Q9Y570 whole entry, looked up): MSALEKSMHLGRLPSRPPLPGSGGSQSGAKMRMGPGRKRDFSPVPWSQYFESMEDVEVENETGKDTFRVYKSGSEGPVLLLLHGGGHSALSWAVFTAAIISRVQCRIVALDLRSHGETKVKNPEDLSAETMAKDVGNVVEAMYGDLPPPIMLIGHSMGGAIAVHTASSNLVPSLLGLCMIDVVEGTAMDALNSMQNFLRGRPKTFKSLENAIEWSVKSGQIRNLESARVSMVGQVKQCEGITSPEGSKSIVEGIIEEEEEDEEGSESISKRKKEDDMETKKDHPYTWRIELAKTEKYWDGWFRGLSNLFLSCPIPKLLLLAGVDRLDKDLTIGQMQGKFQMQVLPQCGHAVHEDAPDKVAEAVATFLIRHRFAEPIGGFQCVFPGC

TPP2 = conditions: HEK293T SILAC ABPP, NHU5 probe, LC-MS/MS ratio, at 5 µM, stronger effect = lower value

Q: Which results are given for O=C(CN1CCN(C(=O)c2ccco2)CC1)Nc1cc(C(F)(F)F)ccc1Cl?
A: SILAC ratio (compound/DMSO) (ABHD10): 1.1 (inactive); SILAC ratio (compound/DMSO) (ABHD12): 1.43 (inactive); SILAC ratio (compound/DMSO) (ABHD6): 1.25 (inactive); SILAC ratio (compound/DMSO) [1]: 0.21; SILAC ratio (compound/DMSO) [2]: 1.1 (inactive); SILAC ratio (compound/DMSO) [3]: 1.22 (inactive); SILAC ratio (compound/DMSO) (CTSA): 1.17 (inactive); SILAC ratio (compound/DMSO) (DDHD1): 1.06 (inactive); SILAC ratio (compound/DMSO) [4]: 1.25 (inactive); SILAC ratio (compound/DMSO) (ESD): 1.08 (inactive); SILAC ratio (compound/DMSO) [5]: 1.14 (inactive); SILAC ratio (compound/DMSO) (LYPLAL1): 1.33 (inactive); SILAC ratio (compound/DMSO) (PLA2G4A): 1.43 (inactive); SILAC ratio (compound/DMSO) (PNPLA6): 1.2 (inactive); SILAC ratio (compound/DMSO) (PNPLA8): 0.97 (inactive); SILAC ratio (compound/DMSO) (PREP): 1.1 (inactive); SILAC ratio (compound/DMSO) [6]: 1.08 (inactive); SILAC ratio (compound/DMSO) (TPP2): 1.1 (inactive)
